Where no end group is shown, it is not given here.
Columns and labels:
[1] = tested on: CD8 single-positive T cells; conditions: PBMCs of healthy donors HD1 to HD5, peptide 10 μM, 21 days with IL-2, then 16 hours with peptide, brefeldin A and monensin; FIG. 1
[2] = tested on: CD8 single-positive T cells; assay: Intracellular cytokine staining (IFN-γ, TNF-α) after restimulation with individual 15mer peptides; format: cell-based, human; conditions: for INF-γ production by CD8 single-positive T cells / TNF-α production by CD8 single-positive T cells: PBMCs of 4 healthy volunteers with HLA-A2402, cultured with 15mer mixture (each 10 μg/ml) and IL-2, restimulated with individual 15mer for 16 hours, FIG. 3
Procedure: Culture was carried out for 21 days in presence of IL-2 and a peptide and stimulation with a peptide was carried out in the presence of brefeldin and monensin in the same manner as in Example 1, and then, INF-γ production was examined. More specifically, to PBMCs of 4 healthy volunteers (HV) with HLA-A2402, a mixture of 15mer peptides was added such that the concentration of each peptide became 10 μg/ml. The PBMCs were cultured in the presence of IL-2. As a result, T cells having a binding affinity to a peptide in contact with them survive. Autogenous PBMCs were pulsed with a mixture of 15mer peptides every week, irradiated with 40 Gy and added to the above culture as a feeder. On Day 14 and 21, the mixture of 15mer peptides was further added. Thereafter, the culture obtained was pulsed with individual 15mer peptides and cultured for 16 hours in the presence of brefeldin and monensin to induce INF-γ production. Intracellular cytokine staining (anti-IFN-g-APC, anti-TNF-α-PE) were performed and peptide-specific cytokine producing CD8T cells were analyzed.

| Sequence | induction of IFN-γ production in CD8 single-positive T cells (cytotoxic T cells) [1] | antigen-specific cytotoxic action of CTLs on peptide-pulsed A24-C1R cells (A24-C1R cells) | INF-γ production by CD8 single-positive T cells [2] | TNF-α production by CD8 single-positive T cells [2] | ratio of INF-γ-positive, TNF-α-positive CD8T cells (stimulation of T cells) ([2]; comparison among the 15mer peptides, FIG. 4) |
| --- | --- | --- | --- | --- | --- |
| QYIKWPWYI [pep #4, QYIKWPWYI] | strong induction of IFN-γ production | exhibited antigen-specific cytotoxic action |  |  |  |
| QYIKWPWYIWLGFIA [15mer-3] |  |  | increased | increased | stimulated T cells most satisfactorily |
| WPWYIWLGFIAGLIA [15mer-4] |  |  | increased | increased |  |
| GKYEQYIKWPWYIWL [15mer-2] |  |  | increased | increased |  |
